Marks after values point to notes of the source that are not given here.
Legend:
[1] = tested on: primary chick cortical neurons; assay: Phosphoinositide hydrolysis assay (InsP3 production) in cultured primary cortical neurons; type: cell-based; details: for fold induction at 100 µM: Gallus gallus, Cortical neurone, 20 min, read-out: Ins-P-n
Protocol: The neurons were seeded in 24-well plastic tissue culture plates that had been coated with L-polylysine.
Receptor-stimulated and basal unstimulated hydrolysis of phosphoinositides was measured by the following procedure. […] The cells were then washed twice with 1 ml Dulbecco's phosphate-buffered saline (PBS) and 0.5 ml of PBS containing 4.5 g/L glucose was added. Sphingosine, psychosine, lysosulphatide, or lysosphingomyelin, prepared as the hydrochloride salt dissolved in water, were then added to produce the desired extracellular concentration in specific wells, […] The cells were then washed twice with 1 ml PBS, and pre-incubated for 15 minutes at 37°C with 0.5 ml PBS containing 10 mM LiCl and the compound to be tested was added. […] The tubes were vortexed thoroughly, then centrifuged at 500 x g for 5 minutes to separate the aqueous and chloroform phases. For each sample, a 1.5-ml aliquot of the upper (aqueous) phase was applied to a small column containing BioRad AG1X8 resin (formate form). Free [^3H]inositol and [^3H]glycerophosphoinositol were washed through the column with 5 ml of a solution containing 5 mM sodium borate and 60 mM sodium formate. The total phosphorylated [^3H] inositol fraction was eluted from the column for radiometric scintillation spectrometry analysis with 3 ml 1.0 M ammonium formate/0.1 M formic acid.
In addition, a 0.5 ml aliquot of the lower (chloroform) phase of each sample was analyzed radiometrically by scintillation spectrometry in order to determine the quantity of lipid-bound [^3H]myo-inositol. Estimation of phosphoinositide hydrolysis by phospholipase C is based upon the quantity of [^3H]inositol phosphates produced, and is expressed as the percentage of the latter relative to total free and componential [^3H]inositol (dpm ammonium formate + dpm chloroform fractions).

cultured neurons = assay: Lysosphingolipid content of cultured neurons by NBDZF fluorescence tagging; type: cell-based, chick
Excerpt: Agonist-binding to metabotropic receptors influences the levels of lysosphingolipid in neuronal membranes. However, there is no convenient methodology available for the measurement of lysosphingolipid content in cultured neurons. As a result, a sensitive method of fluorometric tracing has been devised and is described herein. The measurement of lysosphingolipid content in cultured neurons is based on the stable fluorescence-tagging procedure using 4-fluoro, 7-nitrobenzofuran (NBDZF) described by Nozowa et al J. Neutochem. 59:607-609, 1992). The procedure was applied to: resting neurons; neurons exposed to 100 µM metabotropic receptor agonist for 1 hour; resting neurons exogenously enriched in lysosphingolipids; and neurons exogenously enriched in lysosphingolipids and exposed to metabotropic receptor agonist for 1 hour. The neurons were scraped in batches of 10^7 (1 Petri dish, approximately 8 cm in diameter, is equivalent to 2 mg membrane protein) and subjected to anaylsis.
Total lipids were removed from the neuron samples by repeated extraction with chloroform:methanol (2:1, vol:vol). The lysosphingolipids were separated from total neuronal lipid in 90 ± 5 % recovery yield (n = 10) by the stepped chromatographic procedure of Van Veldhoven et al. (Anal. Biochem. 183:177-189, 1989). The recovered lysosphingolipids were stably tagged with NBDZF by the rapid procedure of Nozowa et al. (supra). The fluorescence tagged neuronal lysosphingolipids were separated in parallel with reference standards NBDZF-Sph, NBDZF-Psy, and NBDZF-Lsm on high performance silica gel thin layer chromatography plates with acetonitrile:H2O (10:0.5, vol:vol). The highly fluorescent, well separated bands were scraped from the plate. The fluorescence tagged lysosphingolipids are eluted from the scraped silica gel with methanol:1 N HCl (1:0.02, vol:vol). The fluorescence tagged lysosphingolipid eluates were quantitated against reference standards by fluorescence measurement in a Perkin-Elmer LS-5 Fluorescence Spectrometer.
Sphingolipid content of neurons exposed to sphingosine, lysocerebroside, and lysosphingomyelin was examined as follows. A Petri dish containing approximately 10^7 neurons was incubated with 5 µCi [^3H]myo-Ins in 3 ml DMEM overnight to prelabel the phosphoinositide InsP3 may contain. The neurons were washed with PBS and 3 ml of PBS containing 4.5 g/l glucose was added. Preparations of sphingosine, lysocerebroside, lysosphingomyelin (Sigma Chemical Co., St. Louis, MO) and combinations of each were prepared as the hydrochloride salt dissolved in PBS. The lysosphingolipids were added to the Petri dishes to produce a concentration ranging from 0 - 150 µM. The dishes were held at room temperature for 0.5, 1, or 2 hours, then washed with PBS and incubated with 5 Units of trypsin in glucose/PBS for […] at 37°C. Trypsinization removes non-specifically bound lysosphingolipids that may adhere to extracellular plasma membrane protein domains. Non-specific adherence between cationic micelles of lysosphingolipids and the neuronal glycocalyx is avoided by performing the experiments with lysosphingolipid concentrations below the critical micelle concentration. Neurons were analyzed for lysosphingolipid content as described above.

cortical neurons = assay: Calcium ion signalling (fura 2) in intact cortical neurons; type: cell-based, chick
Protocol: Metabotropic receptor function was examined in intact neurons by assaying lysosphingolipid modulation of calcium ion signalling. Approximately 1 X 10^6 cortical neurons were cultured on rectangular L-polylysine-coated coverslips and loaded with lysocerebroside or lysosphingomyelin to a level of 150 ± 20 pmoles per mg protein. The neurons were returned to complete Ham's high glucose medium/DMEM (1:1, vol:vol) and infiltrated with 5 µM fura 2/AM (Molecular Probes, Eugene, OR). Fura 2 is a calcium chelator whose fluorescence absorbance shifts to shorter wavelength upon calcium ion binding is measurable in intact cells. A change in intraneuronal calcium ion concentration was monitored as a change in the fluorescence spectrum.
The neurons were exposed to 10 µM glutamate agonist (for example, ibotenate) for 30 minutes at 37°C. The coverslips were then transferred to quartz cuvettes in medium containing 250 µM sulfinpyrazone to prevent fura 2/AM diffusion. Fluorescence ratios were recorded in a Perkin-Elmer LS-5 Fluorescence Spectrometer thermostatted at 37°C at excitation wavelengths of 340 and 380 nm, and emission measurement at 500 nm. Calcium ion signalling in agonist-stimulated neurons was 3.0 ± 0.2 arbitrary units for ibotenate-exposed neurons.

N[C@@H](CCC(=O)O)C(=O)O [Glutamate, glutamate, reference compound]
fold induction at 100 µM [1]: 3.3 ± 0.05

NC(C(=O)O)c1cc(O)no1 (stereo not drawn) [Ibotenate, ibotenate, reference compound]
Ins-P-n [1]: 3.00 ± 0.10^f | lysocerebroside content of neurons (cultured neurons): 80 ± 5 | lysosphingomyelin content of neurons (cultured neurons): 52 ± 2 | sphingosine content of neurons (cultured neurons): 85 ± 3 | Calcium ion signalling (cortical neurons): 3.0 ± 0.2 arbitrary units

CN[C@@H]1C[C@H]2O[C@@](C)([C@@H]1OC)n1c3ccccc3c3c4c(c5c6ccccc6n2c5c31)C(=O)NC4 [staurosporine, reference compound]
influence on the effects of sphingosine, lysocerebroside, or lysosphingomyelin on InsP3 production ([1]; brain neurons responsive to excitatory amino acids, protein kinase C inhibitor): does not influence

Lysosulphatide [reference compound]
inhibitory effect on InsP3 signalling ([1]; chick cortical neurons): without inhibitory effect

N[C@@H](CC(=O)O)C(=O)O [Aspartate, aspartate, reference compound]
fold induction at 100 µM [1]: 2.7 ± 0.06
